Reference: paper PMC6148235, “A structural investigation of NRZ mediated apoptosis regulation in zebrafish” (Cell Death & Disease, 2018)
Numbering of substitutions follows the chain as printed. Residues, ends and D or L forms follow the SMILES beside them. No end group written: not given here.

T1: NRZ D79A (Danio rerio, UniProt Q8UWD5, D79A)
T1 sequence (Q8UWD5 1-148 D79A): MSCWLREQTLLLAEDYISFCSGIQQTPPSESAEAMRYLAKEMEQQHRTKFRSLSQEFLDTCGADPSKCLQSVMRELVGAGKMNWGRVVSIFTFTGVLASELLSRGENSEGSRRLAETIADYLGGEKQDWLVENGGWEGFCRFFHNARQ

T2: NRZ R86A (Danio rerio, UniProt Q8UWD5, R86A)
T2 sequence (Q8UWD5 1-148 R86A): T1 sequence (Q8UWD5 1-148 D79A) with A79D, R86A

T3: wt-NRZ (Danio rerio, UniProt Q8UWD5)
T3 sequence (Q8UWD5 1-148): T1 sequence (Q8UWD5 1-148 D79A) with A79D


Key:
[1] = biological target: T1, NRZ D79A; experiment: ITC affinity measurement of NRZ: BH3 motif interactions (mutant D79A); assay type: binding, zebrafish (Danio rerio); parameters: key to NRZ D79A KD: NB: no binding; settings: MicroCal iTC200, 25 °C, 25 mM HEPES pH 7.5, 150 mM NaCl, 2 mM BME, protein 30 μM, peptide 300 μM, 19 injections of 2.0 μl, means of three replicates with standard error
Protocol: (§1) NRZ mutants D79A and R86A were codon-optimized and synthesized (Genscript) and subsequently cloned into the pGEX-6P-3 vector (Invitrogen). Expression and purification were performed using the same protocol as for wild-type NRZ.
(§2) Binding affinities were measured by isothermal titration calorimetry (ITC) employing a MicroCal iTC200 system (GE Healthcare) at 25 °C using wt-NRZ, and NRZ mutants D79A and R86A in 25 mM HEPES, pH 7.5, 150 mM NaCl, 2 mM BME at a final concentration of 30 μM as previously described. BH3 motif peptide ligands were used at a concentration of 300 μM and titrated using 19 injections of 2.0 μl of ligand. All affinity measurements were performed in triplicate. Protein concentrations were measured using a Nanodrop UV spectrophotometer (Thermo Scientific, Scoresbury, Australia) at a wavelength of 280 nm. Peptide concentrations were calculated based on the dry peptide weight after synthesis. The zebrafish BH3-motif peptides used were commercially synthesized and were purified to a final purity of 95% (GenScript, Piscataway, New Jersey, US). zBim: […] (UniProt accession code B2KKY9, residues 117–142), zPuma: […] (accession code Q0GKC9, residues 123–148), zBik: […] (accession code Q5RGV6, residues 30–55), zBax: […] (accession code Q9I9N4, residues 52–79), zBid: […] (accession code Q0GKC5, residues 85–112), zBad: […] (accession code A7MCM4, 88–113 residues), zBmf: […] (accession code Q0GKC7, residues 89–114), zNoxa: […] (accession code Q0GKC8, residues 5–30), zBok: […] (accession code Q7T381, residues 60–85), zBeclin: […] (accession code F1RCP1, residues 102–127), zBcl-wav: […] (accession code D2Y5Q2, residues 42–67).

[2] = biological target: T2, NRZ R86A; experiment: ITC affinity measurement of NRZ: BH3 motif interactions (mutant R86A); assay type: binding, zebrafish (Danio rerio); parameters: key to NRZ R86A KD: NB: no binding; settings: MicroCal iTC200, 25 °C, 25 mM HEPES pH 7.5, 150 mM NaCl, 2 mM BME, protein 30 μM, peptide 300 μM, 19 injections of 2.0 μl, means of three replicates with standard error
Protocol: as §1, §2

[3] = biological target: T3, wt-NRZ; experiment: ITC affinity measurement of NRZ: BH3 motif interactions (wild type); assay type: binding, zebrafish (Danio rerio); settings: MicroCal iTC200, 25 °C, 25 mM HEPES pH 7.5, 150 mM NaCl, 2 mM BME, NRZ 30 μM, peptide 300 μM, 19 injections of 2.0 μl, means of three replicates with standard error
Protocol: as §2

[4] = biological target: NRZ (zebrafish pro-survival Bcl-2 protein), lacking the 28 C-terminal residues (zebrafish (Danio rerio)); experiment: ITC; MicroCal iTC200, 25 °C; NRZ (wt, D79A or R86A) at 30 μM in 25 mM HEPES pH 7.5, 150 mM NaCl, 2 mM BME; BH3 peptide at 300 μM titrated in 19 injections of 2.0 μl; triplicate
[5] = biological target: NRZ D79A (zebrafish (Danio rerio)) (UniProt Q8UWD5); experiment: as above
[6] = biological target: NRZ R86A (zebrafish (Danio rerio)) (UniProt Q8UWD5); experiment: as above

| Molecule | Kd [1] [nM] | Kd [2] [nM] | Kd [5] [nM] | Kd [6] [nM] | other results |
| --- | --- | --- | --- | --- | --- |
| CC[C@H](C)[C@H](NC(=O)[C@H](CCC(N)=O)NC(=O)[C@H](CCC(N)=O)NC(=O)[C@H](CC(C)C)NC(=O)[C@H](CS)NC(=O)[C@H](CCC(N)=O)NC(=O)[C@H](C)NC(=O)[C@H](CC(C)C)NC(=O)[C@H](CCCNC(=N)N)NC(=O)[C@H](CCCCN)NC(=O)[C@H](Cc1c[nH]cn1)NC(=O)[C@H](CO)NC(=O)[C@@H]1CCCN1C(=O)[C@H](CC(=O)O)NC(=O)[C@H](CS)NC(=O)[C@H](CC(C)C)NC(=O)[C@@H](N)CCC(=O)O)C(=O)NCC(=O)N[C@@H](CC(=O)O)C(=O)N[C@@H](CCC(=O)O)C(=O)N[C@@H](CC(C)C)C(=O)N[C@@H](CC(=O)O)C(=O)NCC(=O)N[C@@H](CC(N)=O)C(=O)N[C@@H](C)C(=O)N[C@@H](CCC(N)=O)C(=O)N[C@@H](CC(C)C)C(=O)N[C@@H](CCC(N)=O)C(=O)O [Bax] (H-ELCDPSHKRLAQCLQQIGDELDGNAQLQ-OH) | 264 ± 42 | 4600 ± 440 |  |  |  |
| ALPPEMVVARELRRIGDEFNRLYCEA [Bim] | 13 ± 4 | 168 ± 8 |  |  |  |
| ALWAAKKYGQQLRRMSDEFDKGQMKR [Bad] | 3330 ± 41 | 4800 ± 88 |  |  |  |
| AQSVETLIGQKLQLIGDQFYQEHIMH [Bmf] |  |  |  |  | WT NRZ KD [3]: no detectable affinity and no affinity and NB; NRZ D79A KD [1]: NB; NRZ R86A KD [2]: NB |
| DGGTMENLSRRLKVTSNLFDIMSGQT [Beclin] |  |  |  |  | WT NRZ KD [3]: no detectable affinity and NB; WT NRZ KD ([3]; listed as Beclin-1): does not bind; NRZ D79A KD [1]: NB; NRZ R86A KD [2]: NB |
| EARAAREMAAELIRIADLLEQSVLSQAA [Bid] | 220 ± 16 |  |  |  |  |
| EEQAVERVAVQLRTIGDEMNAVFLQR [Puma] | 117 ± 5 | 2770 ± 162 |  |  |  |
| EQTAVVECAQQLRNIGDLLNWKYKLL [Noxa] | 335 ± 31 | 510 ± 41 |  |  |  |
| LCPAPSRASAALRHAGDELLIRFPIF [Bcl-wav] |  |  |  |  | Kd [3]: 3.57 ± 0.162 µM; NRZ D79A KD [1]: ablated; NRZ R86A KD [2]: ablated |
| NMRVTQTIGRQLAQIGDEMDNKWRQE [Bik] | 14 ± 3 | 17 ± 3 |  |  |  |
| ALPPEMVVARELRRIGDEFNRLYCEA [zBim BH3 motif peptide] |  |  | 13 | 168 | Kd [4]: 41 nM |
| ELCDPSHKRLAQCLQQIGDELDGNAQLQ [zBax BH3 motif peptide] |  |  | 264 | 4600 |  |
| EEQAVERVAVQLRTIGDEMNAVFLQR [zPuma BH3 motif peptide] |  |  | 117 | 2770 |  |
| LCPAPSRASAALRHAGDELLIRFPIF [zBcl-wav BH3 motif peptide] |  |  |  |  | Kd [4]: 3570 nM |
| NMRVTQTIGRQLAQIGDEMDNKWRQE [zBik BH3 motif peptide] |  |  | 14 | 17 | Kd [4]: 12 nM |
| ALWAAKKYGQQLRRMSDEFDKGQMKR [zBad BH3 motif peptide] |  |  | 3330 | 4800 |  |
| EQTAVVECAQQLRNIGDLLNWKYKLL [zNoxa BH3 motif peptide] |  |  | 335 | 510 |  |
| EARAAREMAAELIRIADLLEQSVLSQAA [zBid BH3 motif peptide] |  |  | 220 |  | Kd [4]: 409 nM |
